{"source": "ChEMBL document CHEMBL1697723", "about": "“A predictive ligand-based Bayesian model for human drug-induced liver injury” (Drug Metab Dispos, 2010)", "note": "Counter-ions that a name gives are not always drawn."}
{"tested_on": "Hepatotoxicity", "assay": "(§1) Human drug-induced liver injury (DILI) modelling dataset from Ekins et al", "conditions": "not given"}
{"molecule": "CC1=C(/C=C/C(C)=C/C=C/C(C)=C\\C(=O)O)C(C)(C)CCC1", "note": "[ISOTRETINOIN]", "Hepatotoxicity": "DILI positive (training set)"}
{"molecule": "CCOC(=O)C1(c2ccccc2)CCN(CCc2ccc(N)cc2)CC1.Cl", "note": "[ANILERIDINE HYDROCHLORIDE]", "Hepatotoxicity": "DILI negative (test set)"}
{"molecule": "Cc1ccc(S(=O)(=O)NC(=O)NN2CC3CCCC3C2)cc1", "note": "(stereo unspecified) [GLICLAZIDE]", "Hepatotoxicity": "DILI negative (training set)"}
{"molecule": "CS(=O)(=O)CCNCc1ccc(-c2ccc3ncnc(Nc4ccc(OCc5cccc(F)c5)c(Cl)c4)c3c2)o1", "note": "[LAPATINIB]", "Hepatotoxicity": "DILI positive (test set)"}
{"molecule": "CN(C)c1ccc(O)c2c1C[C@H]1C[C@H]3[C@H](N(C)C)C(O)=C(C(N)=O)C(=O)[C@@]3(O)C(O)=C1C2=O.Cl", "note": "[MINOCYCLINE HYDROCHLORIDE]", "Hepatotoxicity": "DILI positive (test set)"}
{"molecule": "CCCOc1ccc2nc(NC(=O)OC)[nH]c2c1", "note": "[OXIBENDAZOLE]", "Hepatotoxicity": "DILI positive (training set)"}
{"molecule": "C[n+]1ccc(-c2cc[n+](C)cc2)cc1", "Hepatotoxicity": "DILI positive (test set)"}
{"molecule": "Nc1ccc(C(=O)O)c(O)c1", "note": "[AMINOSALICYLIC ACID]", "Hepatotoxicity": "DILI positive (training set)"}
{"molecule": "NC1CCN(c2c(F)cc3c(=O)c(C(=O)O)cn(C4CC4)c3c2Cl)C1", "note": "(stereo unspecified) [CLINAFLOXACIN]", "Hepatotoxicity": "DILI negative (training set)"}
{"molecule": "NCCC(O)(P(=O)(O)O)P(=O)(O)O", "note": "[PAMIDRONIC ACID]", "Hepatotoxicity": "DILI negative (training set)"}
{"molecule": "Cc1ccc(Cl)c(Nc2ccccc2C(=O)[O-])c1Cl.O.[Na+]", "note": "[MECLOFENAMATE SODIUM]", "Hepatotoxicity": "DILI positive (training set)"}
{"molecule": "Cc1ccc(S(=O)(=O)NC(=O)NN2CCCCCC2)cc1", "note": "[TOLAZAMIDE]", "Hepatotoxicity": "DILI positive (test set)"}
{"molecule": "CN1CCC(=C2c3ccccc3C=Cc3ccccc32)CC1.Cl", "note": "[CYPROHEPTADINE HYDROCHLORIDE]", "Hepatotoxicity": "DILI positive (training set)"}
{"molecule": "CN(C)CCCN1c2ccccc2Sc2ccccc21.Cl", "note": "[PROMAZINE HYDROCHLORIDE]", "Hepatotoxicity": "DILI negative (training set)"}
{"molecule": "CN1C(C(=O)Nc2ccccn2)=C(O)c2ccccc2S1(=O)=O", "note": "[PIROXICAM]", "Hepatotoxicity": "DILI positive (training set)"}
{"molecule": "COc1cc(N)c(Cl)cc1C(=O)NC1CCN(CCCOc2ccc(F)cc2)CC1OC", "note": "(stereo unspecified) [CISAPRIDE]", "Hepatotoxicity": "DILI negative (training set)"}
{"molecule": "COc1cccc2c1C(=O)c1c(O)c3c(c(O)c1C2=O)C[C@@](O)(C(=O)CO)C[C@@H]3O[C@H]1C[C@H](N)[C@H](O)[C@H](C)O1", "note": "[DOXORUBICIN]", "Hepatotoxicity": "DILI negative (test set)"}
{"molecule": "CN(C)CCCN1c2ccccc2Sc2ccc(Cl)cc21", "note": "[CHLORPROMAZINE]", "Hepatotoxicity": "DILI positive (training set)"}
{"molecule": "Oc1ncnc2[nH]ncc12", "note": "[ALLOPURINOL]", "Hepatotoxicity": "DILI positive (training set)"}
{"molecule": "C=CCOC=O", "note": "[ALLYL FORMATE]", "Hepatotoxicity": "DILI positive (test set)"}
{"molecule": "C[C@](N)(Cc1ccc(O)c(O)c1)C(=O)O", "note": "[METHYLDOPA]", "Hepatotoxicity": "DILI positive (test set)"}
{"molecule": "CN1Cc2c(N)cccc2C(c2ccccc2)C1", "note": "(stereo unspecified) [NOMIFENSINE]", "Hepatotoxicity": "DILI positive (training set)"}
{"molecule": "Clc1ccc2c(c1)C(N1CCNCC1)=Nc1ccccc1O2", "note": "[AMOXAPINE]", "Hepatotoxicity": "DILI negative (training set)"}
{"molecule": "CC1(C)S[C@@H]2[C@H](NC(=O)[C@H](N)c3ccccc3)C(=O)N2[C@H]1C(=O)[O-].[Na+]", "note": "[AMPICILLIN SODIUM]", "Hepatotoxicity": "DILI negative (test set)"}
{"molecule": "O=[N+]([O-])O[C@H]1CO[C@H]2[C@@H]1OC[C@H]2O[N+](=O)[O-]", "note": "[ISOSORBIDE DINITRATE]", "Hepatotoxicity": "DILI negative (test set)"}
{"molecule": "Cn1c(=O)c2c(ncn2C)n(C)c1=O", "note": "[CAFFEINE]", "Hepatotoxicity": "DILI negative (test set)"}
{"molecule": "NNC(=O)c1ccncc1", "note": "[ISONIAZID]", "Hepatotoxicity": "DILI positive (training set)"}
{"molecule": "CCO.C[C@H]1c2cccc(O)c2C(=O)C2=C(O)[C@]3(O)C(=O)C(C(N)=O)=C(O)[C@@H](N(C)C)[C@@H]3[C@@H](O)[C@@H]21.Cl.O", "Hepatotoxicity": "DILI positive (training set)"}
{"molecule": "Nc1nc2ncc(CNc3ccc(C(=O)N[C@@H](CCC(=O)O)C(=O)O)cc3)nc2c(=O)[nH]1", "note": "[FOLIC ACID]", "Hepatotoxicity": "DILI negative (training set)"}
{"molecule": "C[C@]12CCC(=O)C=C1CC[C@@H]1[C@@H]2[C@@H](O)C[C@@]2(C)[C@H]1CC[C@]2(O)C(=O)CO", "note": "[HYDROCORTISONE]", "Hepatotoxicity": "DILI negative (training set)"}
{"molecule": "CCOc1nc2cccc(C(=O)O)c2n1Cc1ccc(-c2ccccc2-c2nnn[nH]2)cc1", "Hepatotoxicity": "DILI negative (test set)"}
{"molecule": "CCN(CC)CCNC(=O)c1cc(Cl)c(N)cc1OC.Cl", "Hepatotoxicity": "DILI positive (training set)"}
{"molecule": "NS(=O)(=O)c1cc2c(cc1Cl)NCNS2(=O)=O", "note": "[HYDROCHLOROTHIAZIDE]", "Hepatotoxicity": "DILI positive (training set)"}
{"molecule": "C[C@H](CCC(=O)O)[C@H]1CC[C@H]2[C@@H]3[C@H](O)C[C@@H]4C[C@H](O)CC[C@]4(C)[C@H]3CC[C@]12C", "note": "[CHENODIOL]", "Hepatotoxicity": "DILI positive (training set)"}
{"molecule": "Cc1nc2n(c(=O)c1CCN1CCC(c3noc4cc(F)ccc34)CC1)CCCC2", "note": "[RISPERIDONE]", "Hepatotoxicity": "DILI positive (training set)"}
{"molecule": "CNC(=C[N+](=O)[O-])NCCSCc1ccc(CN(C)C)o1", "note": "[RANITIDINE]", "Hepatotoxicity": "DILI negative (training set)"}
{"molecule": "C[C@H]1C[C@H]2[C@@H]3CCC4=CC(=O)C=C[C@]4(C)[C@@]3(F)[C@@H](O)C[C@]2(C)[C@@]1(O)C(=O)CO", "note": "[BETAMETHASONE]", "Hepatotoxicity": "DILI negative (training set)"}
{"molecule": "C#CCN(C)Cc1ccccc1", "note": "[PARGYLINE]", "Hepatotoxicity": "DILI negative (test set)"}
{"molecule": "COc1cc(C(=O)NCc2ccc(OCCN(C)C)cc2)cc(OC)c1OC.Cl", "note": "[TRIMETHOBENZAMIDE HYDROCHLORIDE]", "Hepatotoxicity": "DILI positive (test set)"}
{"molecule": "Nc1cc(-c2ccncc2)c[nH]c1=O", "note": "[INAMRINONE]", "Hepatotoxicity": "DILI positive (training set)"}
{"molecule": "CC(C)(C)c1ccc(C(O)CCCN2CCC(C(O)(c3ccccc3)c3ccccc3)CC2)cc1", "note": "(stereo unspecified) [TERFENADINE]", "Hepatotoxicity": "DILI negative (training set)"}
{"molecule": "CN[C@H](CC(C)C)C(=O)N[C@H]1C(=O)N[C@@H](CC(N)=O)C(=O)N[C@H]2C(=O)N[C@H]3C(=O)N[C@H](C(=O)N[C@H](C(=O)O)c4cc(O)cc(O)c4-c4cc3ccc4O)[C@H](O)c3ccc(c(Cl)c3)Oc3cc2cc(c3O[C@@H]2O[C@H](CO)[C@@H](O)[C@H](O)[C@H]2O[C@H]2C[C@](C)(N)[C@H](O)[C@H](C)O2)Oc2ccc(cc2Cl)[C@H]1O", "note": "[VANCOMYCIN]", "Hepatotoxicity": "DILI positive (training set)"}
{"molecule": "O=C1OC(c2ccc(O)c(S(=O)(=O)O)c2)(c2ccc(O)c(S(=O)(=O)O)c2)c2c(Br)c(Br)c(Br)c(Br)c21", "note": "[SULFOBROMOPHTHALEIN]", "Hepatotoxicity": "DILI positive (test set)"}
{"molecule": "O=C(O)CCc1nc(-c2ccccc2)c(-c2ccccc2)o1", "note": "[OXAPROZIN]", "Hepatotoxicity": "DILI positive (test set)"}
{"molecule": "C[C@H](O)C(=O)Nc1c(I)c(C(=O)NC(CO)CO)c(I)c(C(=O)NC(CO)CO)c1I", "note": "[IOPAMIDOL]", "Hepatotoxicity": "DILI positive (test set)"}
{"molecule": "NCCBr", "note": "[BROMOETHANAMINE]", "Hepatotoxicity": "DILI positive (test set)"}
{"molecule": "O=c1[nH]c2ccccc2n1C1CCN(CCCC(c2ccc(F)cc2)c2ccc(F)cc2)CC1", "note": "[PIMOZIDE]", "Hepatotoxicity": "DILI negative (test set)"}
{"molecule": "CCCCNc1cc(C(=O)O)cc(S(N)(=O)=O)c1Oc1ccccc1", "note": "[BUMETANIDE]", "Hepatotoxicity": "DILI positive (training set)"}
{"molecule": "CC(C)OC(=O)C(C)(C)Oc1ccc(C(=O)c2ccc(Cl)cc2)cc1", "note": "[FENOFIBRATE]", "Hepatotoxicity": "DILI positive (training set)"}
{"molecule": "C[C@@](Cc1ccc(O)c(O)c1)(NN)C(=O)O.O", "note": "[CARBIDOPA]", "Hepatotoxicity": "DILI negative (training set)"}
{"molecule": "CN1CCN(C(c2ccccc2)c2ccccc2)CC1", "note": "[CYCLIZINE]", "Hepatotoxicity": "DILI positive (test set)"}
{"molecule": "CN1CCN(C2=Nc3cc(Cl)ccc3Nc3ccccc32)CC1", "note": "[CLOZAPINE]", "Hepatotoxicity": "DILI positive (training set)"}
{"molecule": "AUROTHIOGLUCOSE", "Hepatotoxicity": "DILI positive (test set)"}
{"molecule": "Cn1nnc2c(C(N)=O)ncn2c1=O", "note": "[TEMOZOLOMIDE]", "Hepatotoxicity": "DILI negative (training set)"}
{"molecule": "C=C[C@H]1C[N@@]2CC[C@H]1C[C@H]2[C@H](O)c1ccnc2ccc(OC)cc12", "note": "[QUININE]", "Hepatotoxicity": "DILI positive (training set)"}
{"molecule": "COc1ccc2[nH]cc(CCNC(C)=O)c2c1", "note": "[MELATONIN]", "Hepatotoxicity": "DILI negative (training set)"}
{"molecule": "Cc1ccc(-c2nc3ccc(C)cn3c2CC(=O)N(C)C)cc1", "note": "[ZOLPIDEM]", "Hepatotoxicity": "DILI negative (test set)"}
{"molecule": "CC(C)NCC(O)c1cc(O)cc(O)c1.CC(C)NCC(O)c1cc(O)cc(O)c1.O=S(=O)(O)O", "note": "(stereo unspecified) [METAPROTERENOL SULFATE]", "Hepatotoxicity": "DILI positive (training set)"}
{"molecule": "O=C(COc1ccc(Cl)cc1)N1CCN(Cc2ccc3c(c2)OCO3)CC1", "note": "[FIPEXIDE]", "Hepatotoxicity": "DILI positive (test set)"}
{"molecule": "O=C(O)c1cc(=O)c2c(OCC(O)COc3cccc4oc(C(=O)O)cc(=O)c34)cccc2o1", "note": "[CROMOLYN]", "Hepatotoxicity": "DILI negative (training set)"}
{"molecule": "CCCCCOC(=O)c1ccccc1C(=O)OCCCCC", "Hepatotoxicity": "DILI positive (test set)"}
{"molecule": "CCC1(C)CC(=O)NC1=O", "note": "(stereo unspecified) [ETHOSUXIMIDE]", "Hepatotoxicity": "DILI positive (test set)"}
{"molecule": "CC(C)(C)NC[C@H](O)COc1nsnc1N1CCOCC1.O=C(O)/C=C\\C(=O)O", "note": "[TIMOLOL MALEATE]", "Hepatotoxicity": "DILI positive (training set)"}
{"molecule": "CC(=O)c1ccc(S(=O)(=O)NC(=O)NC2CCCCC2)cc1", "note": "[ACETOHEXAMIDE]", "Hepatotoxicity": "DILI positive (training set)"}
{"tested_on": "Hepatotoxicity", "assay": "as §1", "conditions": "Liver"}
{"molecule": "CN/C(=N/CCSCc1nc[nH]c1C)NC#N", "note": "[CIMETIDINE]", "Hepatotoxicity": "DILI negative (training set)"}
{"molecule": "NC(N)=Nc1nc(CSCCC(N)=NS(N)(=O)=O)cs1", "note": "[FAMOTIDINE]", "Hepatotoxicity": "DILI negative (training set)"}
{"molecule": "CC[C@H]1OC(=O)[C@H](C)C(=O)[C@H](C)[C@@H](O[C@@H]2O[C@H](C)C[C@H](N(C)C)[C@H]2O)[C@](C)(OC)C[C@@H](C)C(=O)[C@H](C)[C@H]2N(CCCCn3cnc(-c4cccnc4)c3)C(=O)O[C@]12C", "note": "[TELITHROMYCIN]", "Hepatotoxicity": "DILI positive (test set)"}
{"molecule": "Nc1ccc(S(=O)(=O)c2ccc(N)cc2)cc1", "note": "[DAPSONE]", "Hepatotoxicity": "DILI positive (training set)"}
{"molecule": "C=C1CC[C@H](O)C/C1=C/C=C1\\CCC[C@]2(C)[C@@H]([C@H](C)/C=C/[C@H](C)C(C)C)CC[C@@H]12", "note": "[ERGOCALCIFEROL]", "Hepatotoxicity": "DILI negative (training set)"}
{"molecule": "OCC(S)CS", "note": "(stereo unspecified) [DIMERCAPROL]", "Hepatotoxicity": "DILI positive (test set)"}
{"molecule": "Cc1ncc(C[n+]2csc(CCO)c2C)c(N)n1", "note": "[THIAMINE ION]", "Hepatotoxicity": "DILI negative (test set)"}
